Experimental data published in ChEMBL document CHEMBL1146975, “Identification of cytotoxic, T-cell-selective 1,4-benzodiazepine-2,5-diones” (Bioorg Med Chem Lett, 2006).

How the values were obtained:
Ramos = assay: Cytotoxicity against human Ramos B cells; assay type: functional, cell-based
Jurkat = assay: Cytotoxicity against human Jurkat T cells; assay type: functional, cell-based
[1] = Selectivity for Jurkat T cells over Ramos B cells; assay type: functional

Cc1cccc(-c2ccc(CC3NC(=O)c4cc(Cl)ccc4N(C)C3=O)cc2)c1 (stereo not drawn)
EC50 (Ramos): 2.8 µM | EC50 (Jurkat): 3.1 µM | Ratio EC50 [1]: 0.9

CN1C(=O)C(Cc2ccc(-c3ccc(C(F)(F)F)cc3)cc2)NC(=O)c2cc(Cl)ccc21 (stereo not drawn)
EC50 (Ramos): 4.8 µM | EC50 (Jurkat): 5.2 µM | Ratio EC50 [1]: 0.9

CN1C(=O)C(Cc2ccc(-c3cccc(Cl)c3)cc2)NC(=O)c2cc(Cl)ccc21 (stereo not drawn)
EC50 (Ramos): 1.5 µM | EC50 (Jurkat): 2 µM | Ratio EC50 [1]: 0.8

CN1C(=O)C(Cc2ccccc2)NC(=O)c2cc(Cl)ccc21 (stereo not drawn)
EC50 (Ramos): > 100 µM | EC50 (Jurkat): > 80 µM

CN1C(=O)C(Cc2ccc(C(C)(C)C)cc2)NC(=O)c2cc(Cl)ccc21 (stereo not drawn)
EC50 (Ramos): 16.2 µM | EC50 (Jurkat): 8.2 µM

CN1C(=O)C(CCc2ccccc2)NC(=O)c2cc(Cl)ccc21 (stereo not drawn)
EC50 (Ramos): > 100 µM | EC50 (Jurkat): > 80 µM

CN1C(=O)C(Cc2ccc(-c3ccc(Cl)cc3)cc2)NC(=O)c2cc(Cl)ccc21 (stereo not drawn)
EC50 (Ramos): 6.5 µM | EC50 (Jurkat): 6.5 µM | Ratio EC50 [1]: 1

CN1C(=O)C(Cc2ccc(-c3ccccc3)cc2)NC(=O)c2cc(Cl)ccc21 (stereo not drawn)
EC50 (Ramos): 6.2 µM | EC50 (Jurkat): 2.3 µM

CN1C(=O)C(Cc2c[nH]c3ccccc23)NC(=O)c2cc(Cl)ccc21 (stereo not drawn)
EC50 (Ramos): 9.2 µM | EC50 (Jurkat): 26.2 µM

CN1C(=O)C(Cc2ccc(-c3ccccc3[N+](=O)[O-])cc2)NC(=O)c2cc(Cl)ccc21 (stereo not drawn)
EC50 (Ramos): > 20 µM | EC50 (Jurkat): > 20 µM

CN1C(=O)C(Cc2ccc(-c3cccc(C(F)(F)F)c3)cc2)NC(=O)c2cc(Cl)ccc21 (stereo not drawn)
EC50 (Ramos): 4 µM | EC50 (Jurkat): 4.5 µM | Ratio EC50 [1]: 0.9

Cc1ccc(-c2ccc(CC3NC(=O)c4cc(Cl)ccc4N(C)C3=O)cc2)cc1 (stereo not drawn)
EC50 (Ramos): 6.9 µM | EC50 (Jurkat): 3.6 µM | Ratio EC50 [1]: 1.9

CN1C(=O)C(Cc2ccc(-c3ccoc3)cc2)NC(=O)c2cc(Cl)ccc21 (stereo not drawn)
EC50 (Ramos): 2 µM | EC50 (Jurkat): 0.3 µM | Ratio EC50 [1]: 6.5

CN1C(=O)C(Cc2cccc(-c3ccccc3)c2)NC(=O)c2cc(Cl)ccc21 (stereo not drawn)
EC50 (Ramos): 19.1 µM | EC50 (Jurkat): 5.4 µM

CN1C(=O)C(Cc2cccc3ccccc23)NC(=O)c2cc(Cl)ccc21 (stereo not drawn)
EC50 (Ramos): 12.6 µM | EC50 (Jurkat): 20.5 µM

CN1C(=O)C(Cc2ccc(-c3cccnc3)cc2)NC(=O)c2cc(Cl)ccc21 (stereo not drawn)
EC50 (Ramos): 6 µM | EC50 (Jurkat): 0.6 µM | Ratio EC50 [1]: 10

CN1C(=O)C(Cc2ccc(-c3ccc(O)cc3)cc2)NC(=O)c2cc(Cl)ccc21 (stereo not drawn)
EC50 (Ramos): 6 µM | EC50 (Jurkat): 1.5 µM | Ratio EC50 [1]: 4

CN1C(=O)C(Cc2ccccc2Cc2ccccc2)NC(=O)c2cc(Cl)ccc21 (stereo not drawn)
EC50 (Ramos): 18.6 µM | EC50 (Jurkat): 17.6 µM

CN1C(=O)C(Cc2ccc(-c3cccc([N+](=O)[O-])c3)cc2)NC(=O)c2cc(Cl)ccc21 (stereo not drawn)
EC50 (Ramos): 4.2 µM | EC50 (Jurkat): 1.5 µM | Ratio EC50 [1]: 2.8

CN1C(=O)C(Cc2ccc(-c3cccc(C(=O)O)c3)cc2)NC(=O)c2cc(Cl)ccc21 (stereo not drawn)
EC50 (Ramos): > 20 µM | EC50 (Jurkat): > 20 µM

CN1C(=O)C(Cc2ccc3ccccc3c2)NC(=O)c2cc(Cl)ccc21 (stereo not drawn)
EC50 (Ramos): 10.7 µM | EC50 (Jurkat): 3 µM

CN1C(=O)C(Cc2ccc(-c3cccc(O)c3)cc2)NC(=O)c2cc(Cl)ccc21 (stereo not drawn)
EC50 (Ramos): 4 µM | EC50 (Jurkat): 1.5 µM | Ratio EC50 [1]: 2.7

CN1C(=O)C(Cc2ccc(/C=C/c3ccccc3)cc2)NC(=O)c2cc(Cl)ccc21 (stereo not drawn)
EC50 (Ramos): 50.3 µM | EC50 (Jurkat): 7.5 µM

CN1C(=O)C(Cc2ccc(-c3ccc([N+](=O)[O-])cc3)cc2)NC(=O)c2cc(Cl)ccc21 (stereo not drawn)
EC50 (Ramos): 10 µM | EC50 (Jurkat): 3.8 µM | Ratio EC50 [1]: 2.6

CN1C(=O)C(Cc2ccc(-c3ccc(C(=O)O)cc3)cc2)NC(=O)c2cc(Cl)ccc21 (stereo not drawn)
EC50 (Ramos): 31.8 µM | EC50 (Jurkat): 15.1 µM | Ratio EC50 [1]: 2.1

CN1C(=O)C(Cc2ccc(-c3ccccc3Cl)cc2)NC(=O)c2cc(Cl)ccc21 (stereo not drawn)
EC50 (Ramos): 10.3 µM | EC50 (Jurkat): 8.3 µM | Ratio EC50 [1]: 1.2

Cc1ccccc1-c1ccc(CC2NC(=O)c3cc(Cl)ccc3N(C)C2=O)cc1 (stereo not drawn)
EC50 (Ramos): 6.7 µM | EC50 (Jurkat): 5.4 µM | Ratio EC50 [1]: 1.2

CN1C(=O)C(Cc2ccc(-c3ccc(Br)cc3)cc2)NC(=O)c2cc(Cl)ccc21 (stereo not drawn)
EC50 (Ramos): > 20 µM | EC50 (Jurkat): 9.8 µM | Ratio EC50 [1]: >2

CN1C(=O)C(Cc2ccc(-c3cccc(Br)c3)cc2)NC(=O)c2cc(Cl)ccc21 (stereo not drawn)
EC50 (Ramos): 9.2 µM | EC50 (Jurkat): 4.8 µM | Ratio EC50 [1]: 1.9

CN1C(=O)C(Cc2ccc(-c3ccncc3)cc2)NC(=O)c2cc(Cl)ccc21 (stereo not drawn)
EC50 (Ramos): 3 µM | EC50 (Jurkat): 0.5 µM | Ratio EC50 [1]: 6
